One data set relates to HIV-1 (IIIB). Kind of data set: Antiviral assay in MT-4 cells (HIV MT-4 antiviral assay). Format: cell-based. As to conditions: Human immunodeficiency virus 1, IIIB, MT4, 120 h, HIV-1 (IIIB) in MT-4 cells, 5 days incubation; read-out: EC50. In a few lines: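 Read-out is CellTiter-Glo chemiluminescence after 5-day culture at 37° C, giving protection of MT-4 cells from HIV-1 IIIB cytopathicity. Compounds tested in 1:3 dilution series in complete RPMI; controls were no drug, mock infection and 5 μM AZT.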

Data set [1] in a line: Cytotoxicity assay in MT-4 cells. Format: cell-based, human. As to conditions: human, uninfected MT-4 cells, 5 days incubation; read-out: CC50. Put shortly: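 For cytotoxicity, uninfected MT-4 cells were incubated with compounds 5 days at 37 °C, with 10 μM puromycin marking base cytotoxicity. Parallel plates used HIV-1 IIIB-infected (1:250 stock dilution) or mock cells with 5 μM AZT and no-drug controls. Read-out: CellTiter-Glo chemiluminescence.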

In a further data set the test system is pLai RLuc reporter virus. Kind of data set: microbe, parasite or virus in culture. It is filed as cell-based, HIV. Put shortly:
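Read-out is Renilla luciferase after 72 h at 37 °C in MT-4 cells infected 2 h beforehand with pLai RLuc reporter virus; compounds diluted 1:3.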

Setting [2] is: Human immunodeficiency virus 1, 72 h, read-out: Antiviral Serum Shift RLuc 50% HS, HS/CCM (RPMI media, 10% FBS, 50% HS, 1% P/S), 72-h incubation.
Setting [3] is: Human immunodeficiency virus 1, 72 h, read-out: Antiviral Serum Shift RLuc CCM, CCM (RPMI media, 10% FBS, 1% P/S), 72-h incubation.

SMILES strings stand for the structures. Like-named read-outs stand apart in the source and are kept apart here.

The term CC50 denotes the concentration at which the toxic effect on the cells reaches its halfway point. With `O=C(NCc1c(F)cc(F)cc1F)c1cn2c(c(O)c1=O)C(=O)N1CCc3ccc(F)cc3[C@H]2C1` [Example 147, (13S)-11-fluoro-4-hydroxy-3,5-dioxo-N-(2,4,6-trifluorobenzyl)-3,5,8,13-tetrahydro-7H-6,13-methanobenzo[g]pyrido[1,2-a][1,4]diazonine-2-carboxamide], the values for the EC50 in the data set on HIV-1 (IIIB), in the data set with pLai RLuc reporter virus (setting [2]) and in the data set on pLai RLuc reporter virus (setting [3]) were 2.14 nM, 3.64 nM and 0.375 nM, respectively. Besides, in data set [1], the CC50 at 5 days was 6910 nM.

In the case of `C[C@@]1(F)CCCN2C[C@@H]1n1cc(C(=O)NCc3ccc(F)cc3F)c(=O)c(O)c1C2=O` [Example 60-3, (6R, 7S)—N-(2,4-difluorobenzyl)-6-fluoro-12-hydroxy-6-methyl-1,11-dioxo-1,4,5,6,7,11-hexahydro-3H-2,7-methanopyrido[1,2-a][1,4]diazonine-10-carboxamide], the EC50 in the data set with HIV-1 (IIIB) turned out to be 2.23 nM; in the data set with pLai RLuc reporter virus (setting [2]) it was 14.8 nM; in the data set on pLai RLuc reporter virus (setting [3]), 0.376 nM. The CC50 at 5 days in data set [1] was 14800 nM.

Consider `O=C(NCc1c(F)cc(F)cc1F)c1cn2c(c(O)c1=O)C(=O)N1CCC(F)(F)C[C@H]2C1` [Example 114, (7S)-5,5-difluoro-12-hydroxy-1,11-dioxo-N-(2,4,6-trifluorobenzyl)-1,4,5,6,7,11-hexahydro-3H-2,7-methanopyrido[1,2-a][1,4]diazonine-10-carboxamide], for which the EC50 in the data set on HIV-1 (IIIB) came out at 2.27 nM; in the data set with pLai RLuc reporter virus (setting [2]), 1.04 nM; with pLai RLuc reporter virus (setting [3]), 0.717 nM. Further, in data set [1], the CC50 at 5 days stood at 30500 nM.

Consider `O=C(NCc1ccc(F)cc1F)c1cn2c(c(O)c1=O)C(=O)N1CC[C@@H](F)C[C@H]2C1` [Example 56-2, (5R,7S)—N-(2,4-difluorobenzyl)-5-fluoro-12-hydroxy-1,11-dioxo-1,4,5,6,7,11-hexahydro-3H-2,7-methanopyrido[1,2-a][1,4]diazonine-10-carboxamide], for which the EC50 was found to be 1.86 nM with HIV-1 (IIIB), 1.08 nM in the data set on pLai RLuc reporter virus (setting [2]) and 0.401 nM in the data set with pLai RLuc reporter virus (setting [3]). Also, the CC50 at 5 days in data set [1] was 17800 nM.

On to `O=C(NCc1c(F)cc(F)cc1F)c1cn2c(c(O)c1=O)C(=O)N1C[C@@H]2C[S+]([O-])c2ccccc21` (stereo partly drawn) [Example 95, (6R)-1-hydroxy-2,14-dioxo-N-(2,4,6-trifluorobenzyl)-2,6,7,14-tetrahydro-6,13-methanobenzo[b]pyrido[2,1-f][1,4,7]thiadiazonine-3-carboxamide 8-oxide], for which the EC50 in the data set on HIV-1 (IIIB) was determined as 31.5 nM; in the data set on pLai RLuc reporter virus (setting [2]), 4.84 nM; in the data set with pLai RLuc reporter virus (setting [3]), 5.18 nM. Moreover, the CC50 at 5 days in data set [1] was greater than 50000 nM.

As to `O=C(NCc1c(F)cc(F)cc1F)c1cn2c(c(O)c1=O)C(=O)N1CCN(C(F)(F)F)CC2C1` (stereo not shown) [Example 141, 12-hydroxy-1,11-dioxo-N-(2,4,6-trifluorobenzyl)-5-(trifluoromethyl)-1,4,5,6,7,11-hexahydro-3H-2,7-methanopyrido[1,2-a][1,4,7]triazonine-10-carboxamide], the figures for the EC50 in the data set with HIV-1 (IIIB), in the data set on pLai RLuc reporter virus (setting [2]) and in the data set on pLai RLuc reporter virus (setting [3]) were greater than 100 nM, 199 nM and 29.6 nM, respectively. Moreover, the CC50 at 5 days in data set [1] was greater than 50000 nM.

Turning to `O=C(NCc1ccc(F)c(Cl)c1F)c1cn2c(c(O)c1=O)C(=O)N1CC2CCc2cccc(F)c21` (stereo not shown) [Example 67, N-(3-chloro-2,4-difluorobenzyl)-4-fluoro-7-hydroxy-6,8-dioxo-6,8,13,14-tetrahydro-12H-5,12-methanobenzo[e]pyrido[1,2-a][1,4]diazonine-9-carboxamide], the EC50 in the data set with HIV-1 (IIIB) was found to be 2.44 nM; with pLai RLuc reporter virus (setting [2]), 1.49 nM; with pLai RLuc reporter virus (setting [3]) it was 0.437 nM. Moreover, in data set [1], the CC50 at 5 days is 23900 nM.

`O=C(NCc1ccc(F)cc1F)c1cn2c(c(O)c1=O)C(=O)N1CC=CC[C@@H]2C1` [Example 47-1, (7R)—N-(2,4-difluorobenzyl)-12-hydroxy-1,11-dioxo-1,6,7,11-tetrahydro-3H-2,7-methanopyrido[1,2-a][1,4]diazonine-10-carboxamide]: the EC50 came out at 4.93 nM with HIV-1 (IIIB), 25.7 nM with pLai RLuc reporter virus (setting [2]) and 0.682 nM with pLai RLuc reporter virus (setting [3]). The CC50 at 5 days in data set [1] was determined as 11100 nM.

As for `O=C(NCc1c(F)cc(F)cc1F)c1cn2c(c(O)c1=O)C(=O)N1C[C@@H]2CCCc2ccccc21` [Example 80-1, (6S)-1-hydroxy-2,15-dioxo-N-(2,4,6-trifluorobenzyl)-2,6,7,8,9,15-hexahydro-6,14-methanobenzo[e]pyrido[1,2-a][1,4]diazecine-3-carboxamide], the results for the EC50 in the data set on HIV-1 (IIIB), in the data set with pLai RLuc reporter virus (setting [2]) and with pLai RLuc reporter virus (setting [3]) were 2.24 nM, 0.651 nM and 0.348 nM, respectively. In data set [1], the CC50 at 5 days came to 10400 nM.

Turning to `O=C(NCc1ccc(F)cc1F)c1cn2c(c(O)c1=O)C(=O)N1Cc3cc(F)ccc3C[C@H]2C1` [Example 146, (6S)—N-(2,4-difluorobenzyl)-10-fluoro-1-hydroxy-2,14-dioxo-2,7,12,14-tetrahydro-6H-6,13-methanobenzo[f]pyrido[1,2-a][1,4]diazonine-3-carboxamide], the EC50 turned out to be 1.76 nM in the data set with HIV-1 (IIIB), 1.12 nM in the data set on pLai RLuc reporter virus (setting [2]) and 0.227 nM in the data set with pLai RLuc reporter virus (setting [3]). The CC50 at 5 days in data set [1] is greater than 50000 nM.

Consider `O=C(NCc1c(F)cc(F)cc1F)c1cn2c(c(O)c1=O)C(=O)N1CCc3cc(F)c(F)cc3[C@H]2C1` (single isomer, unassigned) [Example 110-1], for which the EC50 in the data set with HIV-1 (IIIB) worked out at 2 nM; in the data set with pLai RLuc reporter virus (setting [2]), 2.75 nM; in the data set on pLai RLuc reporter virus (setting [3]), 0.323 nM. For the same molecule, the CC50 at 5 days in data set [1] is 9870 nM.

With `C[C@@H]1CC[C@H]2CN(C(=O)c3c(O)c(=O)c(C(=O)NCc4c(F)cc(F)cc4F)cn32)[C@H]1C` [Example 108-1, (3S,4R,7S)-12-hydroxy-3,4-dimethyl-1,11-dioxo-N-(2,4,6-trifluorobenzyl)-1,4,5,6,7,11-hexahydro-3H-2,7-methanopyrido[1,2-a][1,4]diazonine-10-carboxamide], the figures for the EC50 with HIV-1 (IIIB), in the data set on pLai RLuc reporter virus (setting [2]) and with pLai RLuc reporter virus (setting [3]) were 0.997 nM, 1.31 nM and 0.2 nM, respectively. The CC50 at 5 days in data set [1] amounted to 16100 nM.

On to `CC1CCCN2CC1n1cc(C(=O)NCc3ccc(F)cc3F)c(=O)c(O)c1C2=O` (stereo not shown) [Example 17-1b, N-(2,4-difluorobenzyl)-12-hydroxy-6-methyl-1,11-dioxo-1,4,5,6,7,11-hexahydro-3H-2,7-methanopyrido[1,2-a][1,4]diazonine-10-carboxamide], for which the EC50 with HIV-1 (IIIB) came to 1.2 nM; in the data set with pLai RLuc reporter virus (setting [3]) it was 0.26 nM; in the data set on pLai RLuc reporter virus (read-out: Antiviral Serum Shift RLuc 50% HS, HS/CCM (RPMI media, 10% FBS, 50% HS, 1% P/S), 72-h incubation), 3.1 nM. For the same molecule, the CC50 at 5 days in data set [1] came to 10900 nM.

`O=C1CC[C@H]2CN(C1)C(=O)c1c(O)c(=O)c(C(=O)NCc3c(F)cc(F)cc3F)cn12` [Example 78, (7S)-12-hydroxy-1,4,11-trioxo-N-(2,4,6-trifluorobenzyl)-1,4,5,6,7,11-hexahydro-3H-2,7-methanopyrido[1,2-a][1,4]diazonine-10-carboxamide]: the EC50 came to 9.56 nM in the data set on HIV-1 (IIIB), 3.76 nM in the data set on pLai RLuc reporter virus (setting [2]) and 1.93 nM in the data set with pLai RLuc reporter virus (setting [3]). For the same molecule, in data set [1], the CC50 at 5 days was greater than 50000 nM.

Consider `O=C(NCc1c(F)cc(F)cc1F)c1cn2c(c(O)c1=O)C(=O)N1CCc3ccc(Br)cc3[C@@H]2C1` (single isomer, unassigned) [Example 122-2], for which the EC50 in the data set on HIV-1 (IIIB) was found to be 14.4 nM; in the data set with pLai RLuc reporter virus (setting [2]), 298 nM; with pLai RLuc reporter virus (setting [3]), 3.77 nM. Also, the CC50 at 5 days in data set [1] was 4770 nM.

In the case of `O=C(NCc1c(F)cc(F)cc1F)c1cn2c(c(O)c1=O)C(=O)N1C[C@H]2CCc2cccc(F)c21` [Example 46-2, (12R)-4-fluoro-7-hydroxy-6,8-dioxo-N-(2,4,6-trifluorobenzyl)-6,8,13,14-tetrahydro-12H-5,12-methanobenzo[e]pyrido[1,2-a][1,4]diazonine-9-carboxamide], the values for the EC50 in the data set with HIV-1 (IIIB), with pLai RLuc reporter virus (setting [2]) and with pLai RLuc reporter virus (setting [3]) were 1.41 nM, 2.91 nM and 0.204 nM, respectively. Moreover, in data set [1], the CC50 at 5 days turned out to be 12500 nM.

Take `C[C@H]1OC[C@H](C)N2C[C@H]1n1cc(C(=O)NCc3c(F)cc(F)cc3F)c(=O)c(O)c1C2=O` [Example 195, (3S,6R,7R)-12-hydroxy-3,6-dimethyl-1,11-dioxo-N-(2,4,6-trifluorobenzyl)-1,3,4,6,7,11-hexahydro-2,7-methanopyrido[1,2-d][1,4,7]oxadiazonine-10-carboxamide]: the figures for the EC50 in the data set on HIV-1 (IIIB), in the data set on pLai RLuc reporter virus (setting [2]) and with pLai RLuc reporter virus (setting [3]) were 1.73 nM, 10.4 nM and 0.441 nM, respectively. For the same molecule, in data set [1], the CC50 at 5 days came out at 16700 nM.

Consider `C[C@H]1C=CC[C@H]2CN1C(=O)c1c(O)c(=O)c(C(=O)NCc3c(F)cc(F)cc3F)cn12` [Example 148, (3S,7S)-12-hydroxy-3-methyl-1,11-dioxo-N-(2,4,6-trifluorobenzyl)-1,6,7,11-tetrahydro-3H-2,7-methanopyrido[1,2-a][1,4]diazonine-10-carboxamide], for which the EC50 with HIV-1 (IIIB) amounted to 1.67 nM; in the data set on pLai RLuc reporter virus (setting [2]) it was 6.34 nM; in the data set on pLai RLuc reporter virus (setting [3]) it was 0.182 nM. For the same molecule, the CC50 at 5 days in data set [1] came out at 13800 nM.

Turning to `O=C(NCc1ccc(F)cc1F)c1cn2c(c(O)c1=O)C(=O)N1CC[C@@H](F)C[C@@H]2C1` [Example 56-4, (5R, 7R)—N-(2,4-difluorobenzyl)-5-fluoro-12-hydroxy-1,11-dioxo-1,4,5,6,7,11-hexahydro-3H-2,7-methanopyrido[1,2-a][1,4]diazonine-10-carboxamide], the EC50 in the data set with HIV-1 (IIIB) came out at 8.09 nM; in the data set with pLai RLuc reporter virus (setting [2]), 15.4 nM; in the data set with pLai RLuc reporter virus (setting [3]), 2.16 nM. The CC50 at 5 days in data set [1] stood at 30500 nM.

For the origin of these results see patent publication US12227520B2 (priority 2019, dated 2025).
